Common to all, as to assay: MIC, Bouillon-microdilution method (CLSI M07-A8)
Holding throughout (type): cell-based
A general note: Broth dilution looks for growth in wells or tubes with falling amounts of substance.

Assay [1] deals with Staphylococcus epidermidis ATCC 12228. The conditions noted are these: ATCC12228, Staphylococcus epidermis, read-out: MIC values S.e. The method, then:
(§1) The respective determination is valid if in the growth control (DMSO and medium) a distinct turbidity is observed.
(§2) The minimum inhibitory concentrations of the substances of the present inventions against various infectious germs, i.a. against methicillin-resistant Staphylococcus aureus were determined with the Bouillon-microdilution method in accordance with the procedure M07-A8 of the Clinical and Laboratory Standards Institute (Pennsylvania, USA).
(§3) (Source: German Collection of Microorganisms and Cell Cultures, Braunschweig) Enterococcus hirae ATCC 10541, Staphylococcus epidermidis ATCC 12228, Staphylococcus aureus ATCC 6538, methicillin-resistant Staphylococcus aureus ATCC 33592, Bacillus cereus ATCC 11778, Candida albicans ATCC 10231, Aspergillus niger ATCC 16404, Aspergillus fumigatus ATCC 9197.
(§4) In sterile tubes with titled agar, bacteria with casein peptone soy flour peptone agar (Merck, Art. No. 1.05458.05), incubation 18-24 h at 34° C., fungi with Sabouraud 4% Glucose Agar (Merck 1.05438.05), incubation Candida albicans 18-24 h at 34° C., mold fungous 7 days at 22° C.
(§5) Suspensions are produced on titled agar by floating with 0.9% sterile NaCl solution. The turbidity is adjusted photometrically by dilution according to the turbidity of the Mc Farland-standard 0.5.
(§6) Subsequently, the bacterial suspensions are diluted in the ratio of 1:10, the Pi-suspension of the fungi remains undiluted.
(§7) The number of the germs in the inocula is adjusted so that there are approximately 5×10^5 colony forming units per milliliter after inoculation of the test wells.
(§8) The amount of a substance to be tested in a trial is weighed out on a microbalance with an Eppendorf reaction vessel and dissolved in an appropriate volume of dimethyl sulfoxide so that the concentration of the resulting solution corresponds to the 21 times highest final test concentration. The stock solution is subsequently diluted in a serial in a ratio respectively 1 ad 2 with DMSO resulting in seven different concentrations in the wells of a predilution plate. In the eighth well only DMSO is pipetted.
(§9) In each of the 96 wells of a test plate 95 μl sterile Mueller Hinton II medium (Cation adjusted, BBL™ Ref. 212322) for bacteria and sterile Sabouraud 2% glucose medium (DIFCO™ Ref 238230) for fungis are added with an eight-channel pipette (Socorex 50-200 μL). 5 μL of the solution to be tested are pipetted in each of the test wells of the plate (8-channel pipette, Eppendorf-Research, 5-10 μL). They are transferred in this way from the pre-dilutions that in the horizontal row A the highest concentration and respectively a half reduced concentration of the substance to be tested until row G and in row H only DMSO is pipetted. Subsequently, 5 μL of the inocula are pipetted in the test wells using an eight-channel pipette. In one test at least two, maximum four rows are inoculated with the same substance and the same germs. The concentrations of the test substance are each 128 μg/mL to 2 μg/mL.
(§10) The prepared plates are converted to a microtiter plate reader (Anthos ht111) which is connected to a printer. In this device, the plates are shaken for 60 seconds with high frequency before each measurement and the absorption of the probes is measured at the wavelength of light of 590 nm.
(§11) After determination of the initial values the plates are incubated at 34° C. for 16 to 20 h for bacteria and Candida albicans, and 68 to 72 h at 34° C. for mould fungis.
(§12) Following this the micro titer plates are measured again as described above.
(§13) The minimum inhibitory concentration is the lowest concentration of the tested substance which is able to inhibit the complete growth of the particular test organism, i.e. where after incubation no turbidity is measurable. The particular determination is valid when in the growth control (DMSO and medium) a distinct turbidity is observed.

For assay [2], the system named is Staphylococcus aureus ATCC 6538. As to conditions: for MIC: Staphylococcus aureus. The method, then: as §1, §2, §3, §4, §5, §6, §7, §8, §9, §10, §11, §12, §13
Assay [3] deals with methicillin-resistant Staphylococcus aureus ATCC 33592. The conditions noted are these: for MIC: ATCC 33592 / MRSA, read-out: MIC values MRSA. On the procedure: as §1, §2, §3, §4, §5, §6, §7, §8, §9, §10, §11, §12, §13
Assay [4] deals with Aspergillus fumigatus ATCC 9197. As to conditions: ATCC9197, read-out: MIC values A.f. The method, then: as §1, §2, §3, §4, §5, §6, §7, §8, §9, §10, §11, §12, §13
Assay [5] has as its system Aspergillus niger ATCC 16404. As to conditions: ATCC16404, read-out: MIC values A.n. The method, then:
as §1, §2, §3, §4, §5, §6, §7, §8, §9, §10, §11, §12, §13

In assay [6] the test system is Enterococcus hirae ATCC 10541. As to conditions: ATCC10541, read-out: MIC values E.h. On the procedure:
as §1, §2, §3, §4, §5, §6, §7, §8, §9, §10, §11, §12, §13

Assay [7] deals with Escherichia coli. The conditions noted are these: read-out: MIC values E.c. The method, then:
as §1, §2, §4, §5, §6, §7, §8
as §9, with “Subsequently, 5 μL of the inocula are pipetted in the test wells using an eight-channel pipette. In one test at least two, maximum four rows are inoculated with the same substance and the same germs. The concentrations of the test substance are each 128 μg/mL to 2 μg/mL.” left out
(§14) The prepared plates are converted to a microtiter plate reader (Anthos ht111) which is connected to a printer. In this device, the plates are shaken for 60 seconds with high frequency before each measurement and the absorption of the probes is measured at the wavelength of light of 590 nm. […]
(§15) Following this the micro titer plates are measured again as described above. […]

Assay [8] concerns Pseudomonas aeroginosa. As to conditions: read-out: MIC values P.a. On the procedure:
as §1, §2, §4, §5, §6, §7, §8
as §9, with “Subsequently, 5 μL of the inocula are pipetted in the test wells using an eight-channel pipette. In one test at least two, maximum four rows are inoculated with the same substance and the same germs. The concentrations of the test substance are each 128 μg/mL to 2 μg/mL.” left out
as §14, §15

In assay [9] the test system is Candida albicans ATCC 10231. On the procedure: as §1, §2, §3, §4, §5, §6, §7, §8, §9, §10, §11, §12, §13
The mark [10] stands for this setting: ATCC6538, number of tests in brackets, rounded average of logarithmic endpoints, read-out: MIC values S.a.
The mark [11] stands for this setting: methicillin-resistant Staphylococcus aureus, number of tests in brackets.

SMILES strings stand for the structures. Values after ≈ are worked out from the molar mass of the structure shown. Counter-ions that a name gives are not always drawn. Like-named read-outs stand apart in the source and are kept apart here.

With `CN(C)CCCC(=O)c1ccc(-c2ccc(Br)cc2)cc1.Cl` [GG20-4, 4′-(4-bromophenyl)-4-dimethylaminobutyrophenone-hydrochloride], the MIC in assay [1] is 4 µg/mL; in [2] (setting [10]), 4 to 8 µg/mL; in [3] (setting [11]), 8 µg/mL; in [4], 8 µg/mL; in [5], 64 µg/mL; in assay [6], 16 µg/mL. The MIC in [7] and in assay [8] was above 64 µg/mL each time.

With `CN(C)CCCCC(=O)c1ccc(-c2ccc(Br)cc2)cc1.Cl` [GG20-5], the MIC was found to be 16 µg/mL in assay [2] (setting [10]); 16 µg/mL in assay [3] (setting [11]); 8 µg/mL in [9] (ATCC10231, Candida albicans, number of tests in brackets, read-out: MIC values C.a. (Yeast)).

Take `Cl.O=C(CCCN1CCN(c2ccccc2)CC1)c1ccc(-c2ccc(Br)cc2)cc1` [4′-(4-bromophenyl)-4-(N-phenylpiperazino)butyrophenone-hydrochloride, reference compound]: the “MIC value / growth inhibition of Staphylococcus aureus (result in words)” value in assay [2] (also after addition of higher concentrations) was “did not inhibit the growth”.

Consider `CN(C)CCCCc1ccc(-c2ccc(Br)cc2)cc1` [GG28, 4-bromo-4′-(4-dimethylaminobutyl) biphenyl hydrochloride], for which the MIC was determined as 13 µg/mL in assay [2] (ATCC6538, read-out: MIC values S.a.); 18 µg/mL in [3] (Staphylococcus aureus); 8 µg/mL in assay [9] (ATCC10231, read-out: MIC values C.a. (Yeast)).

For `CN(C)CCC(=O)c1ccc(-c2ccc(Br)cc2)cc1.Cl` [GG20-3, reference compound], the MIC in assay [1] was 16 µg/mL; in assay [2] (setting [10]), 32 µg/mL; in assay [3] (setting [11]), 32 µg/mL; in assay [7], above 64 µg/mL; in assay [8] it was above 64 µg/mL.

Regarding `CN(C)[C@@H]1C(=O)C(C(N)=O)=C(O)[C@@]2(O)C(=O)C3=C(O)c4c(O)cccc4[C@@](C)(O)[C@H]3C[C@@H]12` [Tetracyclin, reference compound], the “MIC values MRSA” value in [3] (setting [11]) was 64 µg/mL (≈ 144 µM).

Turning to `CN[C@H](CC(C)C)C(=O)N[C@H]1C(=O)N[C@@H](CC(N)=O)C(=O)N[C@H]2C(=O)N[C@H]3C(=O)N[C@H](C(=O)N[C@H](C(=O)O)c4cc(O)cc(O)c4-c4cc3ccc4O)[C@H](O)c3ccc(c(Cl)c3)Oc3cc2cc(c3O[C@@H]2O[C@H](CO)[C@@H](O)[C@H](O)[C@H]2O[C@H]2C[C@](C)(N)[C@H](O)[C@H](C)O2)Oc2ccc(cc2Cl)[C@H]1O` [Vancomycin, reference compound], the minimum inhibitory concentration (MIC) in assay [3] (Staphylococcus aureus) was below 2 µg/mL.

The term MIC denotes the lowest concentration that inhibits growth of the organism.
